In patent publication US20260294810A1, “IONIZABLE LIPID COMPOUND, LIPID CARRIER COMPRISING SAME, AND APPLICATION” (INNOVEC BIOTHERAPEUTICS, priority 2023, published 2026):

Legend:
[1] = Determination of particle size and polydispersity index of lipid nanoparticles (Malvern particle size analyzer); assay type: physicochemical
Method: (§1) In this example, the total lipid phase concentration of 1 mg/mL was formulated in anhydrous ethanol at the molar ratio of ionizable lipid (Compound 1, Compound 11 or Compound 12):helper lipid (DSPC or DOPE):cholesterol:DMG-PEG2000=50%:10%:38.5%:1.5%. Luc-eGFP mRNA at the corresponding concentration was dissolved in 50 mM citric acid buffer with an aqueous buffer solution of pH4.0. The mass ratio of mRNA to the total lipids was 1:30.
(§2) LNPs were prepared using the formulation-screening chip from Micro & Nano at a total flow rate of 12 ml/min and a flow rate ratio of 1:3 between the lipid phase and the aqueous phase. The lipid nanoparticles were collected and dialyzed with PBS overnight at 4° C. to remove ethanol and acidic buffer salts. The dialysate volume was 400 times or more the sample volume. The dialyzed sample was filtered through a 0.2-μm filter membrane. Lipid nanoparticles could also be prepared by other methods, such as injection mixing, in addition to using microfluidic chips. After being dialyzed and filtered, the sample was concentrated using a 10 kDa cellulose ultrafiltration membrane. The centrifugation parameter was 1000 g to 2000 g, and the centrifugation time was 30 min to 1 hour. The centrifugation temperature was 4° C.
2. Determination of particle size: The particle size and polydispersity index (PDI) of the prepared lipid nanoparticles were measured using a Malvern particle size analyzer.
(§3) The nucleic acid delivery efficiency of lipid nanoparticles was characterized by observing the fluorescence expression in mice. The lipid nanoparticles were prepared at a molar ratio of ionizable lipid (Compound 17, Compound 15, Compound 18, Compound 2 or MC3):DSPC:cholesterol:DSPE-PEG2000=50%:10%:39.5%:0.5%. Female C57/BL6 mice weighing 18 to 22 g were selected. After acclimation, the Luc-eGFP mRNA-encapsulated lipid nanoparticles were injected subretinally into mice (both eyes) at a dose of 0.9 μg (±10%) mRNA (1 μl, in a sterile PBS solution) per eye. In order to observe the expression of luciferase, the luciferase substrate was dissolved into a sterile PBS solution and prepared into a solution at a concentration of 30 mg/ml.

Luc-eGFP mRNA = assay: Determination of encapsulation efficiency of mRNAs (Quant-iT RiboGreen RNA kit); assay type: physicochemical
Method: as §1, §2
For mRNA-encapsulated lipid nanoparticles, the assay specified in the Quant-iT™ RiboGreen® RNA kit could be employed. The specific operations were as follows: The sample was diluted 10 to 20 folds with a TE buffer solution (10 mM Tris-HCl, 1 mM EDTA, pH 7.5). An equal volume of demulsifier (2% Triton X-100) was added to the sample to be tested and then the solution was diluted 10 to 20 folds again. The RiboGreen® reagent was diluted 100 folds in the TE buffer solution, and 100 μl of the diluted solution was added to a 96-well plate. 100 μl of the sample to be tested was added to the corresponding 96-well plate. Meanwhile, a standard curve was plotted using the mRNA standard. The fluorescence value at 520 nm excited by 480 nm excitation light was read using a microplate reader. The concentrations of the encapsulated and free mRNAs were calculated based on the standard curve.
as §3

luciferase [2] = assay: Subretinal injection in mice, chemiluminescence from Luc-eGFP mRNA delivered by lipid nanoparticles; assay type: in vivo, Female C57/BL6 mice; settings: LNP ionizable lipid:DSPC:cholesterol:DSPE-PEG2000 = 50:10:39.5:0.5, both eyes, 0.9 μg (±10%) mRNA per eye
Method: as §3
(§4) Imaging in mice: 18 hours after drug administration, 150 μl of luciferase substrate solution was injected intraperitoneally into each mouse. The mice were allowed to stand for 5 min, and then anesthetized for 3 min in a carbon dioxide box. After anesthesia, the mice were put in a small animal in vivo imager for imaging.

luciferase [3] = assay: In vivo delivery of luciferase mRNA in animals, tail vein injection, chemiluminescence imaging; set-up: species or system Female C57/BL6 mice; settings: Luc-eGFP mRNA 0.5 mg/kg, mice, 6 h after injection
Method: as §1
The nucleic acid delivery efficiency of lipid nanoparticles was characterized by observing the fluorescence expression in mice. The Luc-eGFP mRNA-encapsulated lipid nanoparticles prepared in Example 9 were injected at a certain dose into mice via the tail vein. Female C57/BL6 mice weighing 18 to 22 g were randomly grouped, with two mice in each group. After acclimation, Luc-eGFP mRNA-encapsulated LNPs (in a sterile PBS solution) were injected via the tail vein at a dose of 0.5 mg/kg (0.5 mg here referring to the dose of mRNA). In order to observe the expression of luciferase, the luciferase substrate was dissolved into a sterile PBS solution and prepared into a solution at a concentration of 30 mg/ml.
as §4, with “Six” for “Imaging in mice: 18”, “injection of LNPs,” for “drug administration,”, “ul” for “μl”

[4] = LNP ionizable lipid:DSPC:cholesterol:DSPE-PEG2000 = 50:10:39.5:0.5, Luc-eGFP mRNA
[5] = LNP with helper lipid DSPC, ionizable lipid:helper lipid:cholesterol:DMG-PEG2000 = 50:10:38.5:1.5, Luc-eGFP mRNA:total lipids 1:30
[6] = LNP with helper lipid DOPE, ionizable lipid:helper lipid:cholesterol:DMG-PEG2000 = 50:10:38.5:1.5, Luc-eGFP mRNA:total lipids 1:30

| PDI [1, 4] | Particle Size [1, 4] | Nucleic Acid Encapsulation Efficiency (Luc-eGFP mRNA; [4]) | PDI [1, 5] | Particle Size [1, 5] | Nucleic Acid Encapsulation Efficiency (Luc-eGFP mRNA; [5]) | PDI [1, 6] | Particle Size [1, 6] | Nucleic Acid Encapsulation Efficiency (Luc-eGFP mRNA; [6]) | Compound | Luminous Intensity 18 h (luciferase [2]) | Luminous Intensity 6 h (luciferase [3]; LNP with helper lipid DSPC) | Luminous Intensity 6 h (luciferase [3]; LNP with helper lipid DOPE) |
| --- | --- | --- | --- | --- | --- | --- | --- | --- | --- | --- | --- | --- |
| 0.19 | 147.2 nm | 99.3% |  |  |  |  |  |  | CCCCCCCCC(CCCCCC)C(=O)OCCCCCCN(CCCCCCOC(=O)C(CCCCCC)CCCCCCCC)CCOC(=O)NCCN(C)CC (stereo not shown) [Compound 2] | 2E+8 p/s/cm^2/sr |  |  |
|  |  |  | 0.22 | 123 nm | 97.58% |  |  |  | CCCCCCCCC(CCCC)C(=O)OCCCCCCN(CCCCCCOC(=O)C(CCCCCC)CCCCCCCC)CCOC(=O)NCCN(CC)CC (stereo not shown) [Compound 12] |  | 3.1E+8 p/s/cm^2/sr |  |
| 0.22 | 149.7 nm | 98.2% |  |  |  |  |  |  | CCCCCCCCCOC(=O)CCCCCCCN(CCCCCCCC(=O)OC(CCCCCCCC)CCCCCCCC)CCOC(=O)NCCN(C)CC [Compound 15] | 2.6E+7 p/s/cm^2/sr |  |  |
| 0.36 | 90.31 nm | 99.4% |  |  |  |  |  |  | CCCCCCCCCOC(=O)CCCCCCCN(CCCCCCCC(=O)OC(CCCCCCCC)CCCCCCCC)CCOC(=O)NCCCN(C)C [Compound 17] | 3.4E+8 p/s/cm^2/sr |  |  |
| 0.24 | 149.0 nm | 96.6% |  |  |  |  |  |  | CCCCC/C=C\C/C=C\CCCCCCCCC(CCCCCCCC/C=C\C/C=C\CCCCC)OC(=O)CCCN(C)C [MC3, DLin-MC3-DMA, reference compound] | 5E+6 p/s/cm^2/sr | 1.35E+8 p/s/cm^2/sr |  |
|  |  |  | 0.215 | 96.88 nm | 97.13% |  |  |  | CCCCCCCCC(C)C(=O)OCCCCCCN(CCCCCCOC(=O)C(CCCCCC)CCCCCCCC)CCOC(=O)NCCN(CC)CC (stereo not shown) [Compound 11] |  | 7.2E+7 p/s/cm^2/sr |  |
| 0.14 | 121.7 nm | 96.0% |  |  |  |  |  |  | CCCCCCCCCOC(=O)CCCCCCCN(CCCCCCCC(=O)OC(CCCCCCCC)CCCCCCCC)CCOC(=O)NCCN(CC)CC [Compound 18] | 1E+7 p/s/cm^2/sr |  |  |
|  |  |  | 0.135 | 111.7 nm | 93.01% | 0.082 | 99.86 nm | 95.42% | CCCCCCCCC(CCCCCC)C(=O)OCCCCCCN(CCCCCCOC(=O)C(CCCCCC)CCCCCCCC)CCOC(=O)NCCN(CC)CC (stereo not shown) [Compound 1] |  | 3.4E+8 p/s/cm^2/sr | 1.6E+9 p/s/cm^2/sr |
